Data as given in publication PMC11714206, “Massively Parallel Screening of Toll/Interleukin‐1 Receptor (TIR)‐Derived Peptides Reveals Multiple Toll‐Like Receptors (TLRs)‐Targeting Immunomodulatory Peptides” (Advanced Science, 2024).

Biological target: T1, MAL^TIR (Homo sapiens, UniProt P58753)
T1 construct: MAL (residues 79–221); 6xHis; made in house; host or cells: E. coli BL21 (DE3)
Test: T‐Surf phage library (P8 and P3) selection against MAL^TIR, four rounds, NGS read counts
Assay type: binding
Details: for P3_MAL Rank (after) / P3_MAL Rank (before): P3 library; for P8_MAL Rank (after) / P8_MAL Rank (before): P8 library; for Population: P3_MAL pool: P3 T-Surf phage library, 4th round of selection against MAL TIR, share of NGS reads
In short: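 Coat TIR domain 5 µg mL^−1 overnight; block 0.2% BSA/PBS 1 h, 4 °C; add phage library 1 h, RT; wash ×4 PBS/0.5% Tween‐20; elute 100 mM HCl, neutralize Tris; amplify in TG1, PEG‐precipitate. Repeat to round 4; barcode PCR, NovaSeq, count reads.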

[1] = 4R selection against MAL, rank after grouping
[2] = 4R selection against MAL, rank before grouping
[3] = selection against MAL, rank by count after grouping
[4] = selection against MAL, rank by count before grouping
[5] = selection against MAL TIR, rank by count after grouping
[6] = selection against MAL TIR, rank by count before grouping
[7] = P3_MAL: rank by count after grouping
[8] = P3_MAL: rank by count before grouping
[9] = selection against MAL, rank after grouping
[10] = selection against MAL, rank before grouping
[11] = P8_MAL: rank by count after grouping
[12] = P8_MAL: rank by count before grouping

T1 sequence (P58753 79-221): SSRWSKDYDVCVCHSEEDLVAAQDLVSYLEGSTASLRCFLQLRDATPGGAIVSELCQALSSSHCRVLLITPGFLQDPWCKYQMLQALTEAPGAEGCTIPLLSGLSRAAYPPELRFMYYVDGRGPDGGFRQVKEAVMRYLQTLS

## HLLKEFGKKLITAFKN
[1]
  P3_MAL Rank (after): 646
[2]
  P3_MAL Rank (before): 2779

## VEPTQVRKQSGAVEM
[3]
  P3_MAL Rank (after): 716
[4]
  P3_MAL Rank (before): 1671

## PNLRTKVLSYLMRTTT
[5]
  P3_MAL Rank (after): 270
[6]
  P3_MAL Rank (before): 2674

## AFFWAQLNSVLGNTTM
[3]
  P8_MAL Rank (after): 710
[4]
  P8_MAL Rank (before): 1608

## YFWHALKNALAVNNDV
  Population: 0.056%
[7]
  Rank (after): 97
[8]
  Rank (before): 97

## PNLRPKVRNYLIRTKT
[9]
  P3_MAL Rank (after): 532
[10]
  P3_MAL Rank (before): 2672

## RPLKWKEALHQFHSRV
[9]
  P3_MAL Rank (after): 493
[10]
  P3_MAL Rank (before): 2562

## YAFTGHLHRYLLQKM
[5]
  P3_MAL Rank (after): 254
[6]
  P3_MAL Rank (before): 737

## TFLDTLLNKLAQAAIH
[11]
  Rank (after): 470
[12]
  Rank (before): 2626

## RLLKWIETLHQFHSWV
[1]
  P3_MAL Rank (after): 653
[2]
  P3_MAL Rank (before): 2489

## RWFWDKLIYALSRNTH
[7]
  Rank (after): 471
[8]
  Rank (before): 3228

## EFVLTFVINLTPRTSF
[9]
  P8_MAL Rank (after): 576
[10]
  P8_MAL Rank (before): 2041

## DLLNGFIALKSTVIEN
[3]
  P8_MAL Rank (after): 717
[4]
  P8_MAL Rank (before): 1982

## YFLHFLLFRRPENAYM
[5]
  P8_MAL Rank (after): 268
[6]
  P8_MAL Rank (before): 1461

## NQWRNTLTAAANLSGW
  Population: 0.00376%

## WFYDRLVRLILRDTKV
[1]
  P8_MAL Rank (after): 647
[2]
  P8_MAL Rank (before): 1141

## KEVEGWRDALAKVASP
[9]
  P3_MAL Rank (after): 576
[10]
  P3_MAL Rank (before): 3557

## RGFLAICVIICRRKI
[7]
  Rank (after): 390
[8]
  Rank (before): 2406

## GPDTRRKFISFLYKEL
[3]
  P3_MAL Rank (after): 683
[4]
  P3_MAL Rank (before): 1767

## PNLRTKVLSYPMRTMT
[3]
  P3_MAL Rank (after): 741
[4]
  P3_MAL Rank (before): 2707

## YALPAICIVIWCSVA
[7]
  Rank (after): 138
[8]
  Rank (before): 516

## SLLYDHLRRLGIRAIM
[3]
  P8_MAL Rank (after): 700
[4]
  P8_MAL Rank (before): 2491

## WFYARLVSLLLRDTKV
[11]
  Rank (after): 150
[12]
  Rank (before): 1132

## YLNSGYPWRYDRLRFA
[3]
  P3_MAL Rank (after): 750
[4]
  P3_MAL Rank (before): 1498

## SSFCEGLWRLLELSTK
[5]
  P3_MAL Rank (after): 234
[6]
  P3_MAL Rank (before): 3122

## KEVDGWRDALTQVASL
[5]
  P3_MAL Rank (after): 196
[6]
  P3_MAL Rank (before): 3547

## GRYGELFMTETDVREG
[7]
  Rank (after): 403
[8]
  Rank (before): 1763

## DQCRNALTAAANLSGW
[5]
  P3_MAL Rank (after): 201
[6]
  P3_MAL Rank (before): 1953

## DWSLSKLSQHFLKREK
[9]
  P3_MAL Rank (after): 485
[10]
  P3_MAL Rank (before): 1909

## RNFVAYLLQALAHKCI
[11]
  Rank (after): 420
[12]
  Rank (before): 2221

## YAFTGHLHRSLVQSGV
[7]
  Rank (after): 154
[8]
  Rank (before): 1381

## SSCLEGLWRLLELSKK
[7]
  Rank (after): 476
[8]
  Rank (before): 3209

## TFLGHLYMRWCRRAF
[1]
  P8_MAL Rank (after): 625
[2]
  P8_MAL Rank (before): 2560

## RGFTSHLYHRIQRNSN
[1]
  P3_MAL Rank (after): 605
[2]
  P3_MAL Rank (before): 2419

## AFFWAQLKSVLGNPAR
[1]
  P8_MAL Rank (after): 605
[2]
  P8_MAL Rank (before): 1630

## PNLRTKVLYYPMRTKT
[1]
  P3_MAL Rank (after): 624
[2]
  P3_MAL Rank (before): 2699

## KLFWEKFKFFRPSLSC
[5]
  P8_MAL Rank (after): 226
[6]
  P8_MAL Rank (before): 2709

## KGLTEIADLKGKKCDR
[9]
  P3_MAL Rank (after): 529
[10]
  P3_MAL Rank (before): 3531

## NQWRNALTAPANLSGR
[5]
  P3_MAL Rank (after): 228
[6]
  P3_MAL Rank (before): 3389

## RRLKWKDALHQFHSWV
[7]
  Rank (after): 124
[8]
  Rank (before): 594

## TFLGNLYNALVKAGIH
[11]
  Rank (after): 135
[12]
  Rank (before): 2614

## AFFWERLRPVLRKPTR
[1]
  P8_MAL Rank (after): 637
[2]
  P8_MAL Rank (before): 1668

## SSFREGLLRLLELRKK
[5]
  P3_MAL Rank (after): 265
[6]
  P3_MAL Rank (before): 3138

## WHFHLRLRMHDLLQNI
[3]
  P3_MAL Rank (after): 738
[4]
  P3_MAL Rank (before): 1300

## YAFTGHLERHEVQRGV
[3]
  P3_MAL Rank (after): 715
[4]
  P3_MAL Rank (before): 1367

## NLWRNALTAAANLSSW
[3]
  P8_MAL Rank (after): 720
[4]
  P8_MAL Rank (before): 2656

## DSLFWDRLLYSLHVTE
[11]
  Rank (after): 157
[12]
  Rank (before): 877

## TFLGNLYNPLVQAGLH
[9]
  P8_MAL Rank (after): 521
[10]
  P8_MAL Rank (before): 2615

## QFFWDQLKSILGDTRF
[9]
  P8_MAL Rank (after): 519
[10]
  P8_MAL Rank (before): 2433

## LFFWEHLKQLLRNDGR
[9]
  P8_MAL Rank (after): 513
[10]
  P8_MAL Rank (before): 2073

## LFFWESLKNVLRKPGL
[9]
  P8_MAL Rank (after): 495
[10]
  P8_MAL Rank (before): 2116

## RLQECKEALHQFHSWV
[3]
  P3_MAL Rank (after): 737
[4]
  P3_MAL Rank (before): 2549

## ESILNQLRHHLQAKDH
[7]
  Rank (after): 170
[8]
  Rank (before): 544

## AFLYDFLINLTHQTNF
[11]
  Rank (after): 159
[12]
  Rank (before): 1814

## LKEESWRQAQEKAGKL
[3]
  P3_MAL Rank (after): 744
[4]
  P3_MAL Rank (before): 2310

## AFLYAFLNNLTHPTTF
[11]
  Rank (after): 139
[12]
  Rank (before): 1767

## SLLYDYLRCLGIRAIL
[11]
  Rank (after): 475
[12]
  Rank (before): 2493

## LFFWESLKQPLRSEGR
[1]
  P8_MAL Rank (after): 608
[2]
  P8_MAL Rank (before): 2112

## FLNWPRNPKEHRHFWH
[5]
  P3_MAL Rank (after): 241
[6]
  P3_MAL Rank (before): 1181

## RNFMAYLFQALAHKGI
[5]
  P8_MAL Rank (after): 202
[6]
  P8_MAL Rank (before): 2241

## GFFERLVRMILRDTKV
[5]
  P8_MAL Rank (after): 263
[6]
  P8_MAL Rank (before): 1567

## NQWHNALAAAANLLGL
[7]
  Rank (after): 473
[8]
  Rank (before): 3418

## YAFTGHLHRYLMRTKT
  Population: 0.00338%
[7]
  Rank (after): 114
[8]
  Rank (before): 186
